Measurements taken from DBAASP.
In brackets after ≈: the same amount, converted by molar mass. One block for each compound: values may come before it.

Key:
Experiment in all cases: ≥ marks a high value that may be exact or a test limit, other limits are often not marked, values filed in µg/mL are converted to µM
[1] = system: Staphylococcus aureus ATCC 25929
[2] = system: Escherichia coli ATCC 25922
[3] = system: Serratia marcescens ATCC 8100
[4] = system: Staphylococcus aureus ATCC 25923
[5] = system: Salmonella enterica subsp. enterica serovar Typhimurium ATCC 14028
[6] = system: Escherichia coli ML-35
[7] = system: Pseudomonas aeruginosa IFO 12582
[8] = system: Escherichia coli IFO 12734
[9] = system: Staphylococcus aureus IFO 12732
[10] = system: Bacillus subtilis IFO 3143
[11] = system: Escherichia coli O157:H7 ATCC 43895
[12] = system: Escherichia coli
[13] = system: Aspergillus flavus KCTC 1375
[14] = system: Enterococcus faecium ATCC 19434
[15] = system: Candida albicans ATCC 90028
[16] = system: Malassezia furfur KCTC 7744
[17] = system: Staphylococcus aureus
[18] = system: Pseudomonas aeruginosa
[19] = system: Pseudomonas aeruginosa ATCC 27853
[20] = system: Enterococcus faecium
[21] = system: Bacillus subtilis IFO 3513
[22] = system: Escherichia coli OP50
[23] = system: Bacillus megaterium KCTC 1096
[24] = system: Candida albicans KCTC 7121
[25] = system: Trichosporon beigelii KCTC 7251
[26] = system: Staphylococcus aureus KCTC 1621
[27] = system: Aspergillus flavus KCTC 7375
[28] = system: Escherichia coli KCTC 1682
[29] = system: Pseudomonas aeruginosa KCTC 1637
[30] = system: Fusarium oxysporum KCTC 6084
[31] = system: Proteus vulgaris
[32] = system: Bacillus subtilis KCTC 1918

MIC [1]: ≥ 66 µM
MIC [2]: 33 µM (≈ 63.9 µg/mL)
SMILES: CC(C)C[C@H](NC(=O)[C@H](CO)NC(=O)[C@@H]1CCCN1C(=O)[C@H](CO)NC(=O)[C@H](CC(C)C)NC(=O)[C@@H](N)CCCCN)C(=O)NCC(=O)N1CCC[C@H]1C(=O)N[C@H](C(=O)N[C@@H](CO)C(=O)N[C@@H](CCCCN)C(=O)NCC(=O)N[C@@H](CCCCN)C(=O)N[C@@H](CC(C)C)C(=O)N[C@@H](CC(C)C)C(=O)N[C@@H](C)C(=O)NCC(=O)N[C@@H](CCC(N)=O)C(=O)N[C@@H](CCCN=C(N)N)C(N)=O)C(C)C [KLSPSLGPVSKGKLLAGQR]

MIC [3]: ≥ 128 µM
MIC [4]: > 128 µM
MIC [2]: 64 µM (≈ 147 µg/mL)
MIC [5]: 128 µM (≈ 294 µg/mL)
MIC [6]: ≥ 64 µM
SMILES: CC(C)C[C@H](NC(=O)[C@H](CCCN=C(N)N)NC(=O)[C@@H]1CCCN1C(=O)[C@@H]1CCCN1C(=O)[C@H](CCCN=C(N)N)NC(=O)[C@@H]1CCCN1)C(=O)N1CCC[C@H]1C(=O)N[C@@H](CCCN=C(N)N)C(=O)N1CCC[C@H]1C(=O)N[C@@H](CCCN=C(N)N)C(=O)N1CCC[C@H]1C(=O)N[C@@H](CCCN=C(N)N)C(=O)N1CCC[C@H]1C(=O)N[C@@H](CC(C)C)C(=O)N1CCC[C@H]1C(=O)N[C@@H](Cc1ccccc1)C(=O)N1CCC[C@H]1C(=O)N[C@@H](CCCN=C(N)N)C(=O)N1CCC[C@H]1C(=O)O [PRPPRLPRPRPRPLPFPRP]

MIC [7]: 23.4 µM (≈ 64 µg/mL)
MIC [8]: 5.84 µM (≈ 16 µg/mL)
MIC [9]: 2.92 µM (≈ 8 µg/mL)
MIC [10]: 2.92 µM (≈ 8 µg/mL)
SMILES: CC(C)C[C@H](NC(=O)[C@H](Cc1ccc(O)cc1)NC(=O)[C@H](Cc1cnc[nH]1)NC(=O)[C@@H](NC(=O)[C@H](CC(C)C)NC(=O)[C@H](C)NC(=O)[C@H](C)NC(=O)[C@H](CCCCN)NC(=O)CNC(=O)[C@@H](NC(=O)[C@H](Cc1cnc[nH]1)NC(=O)[C@H](CCCCN)NC(=O)CNC(=O)[C@@H](NC(=O)[C@H](Cc1cnc[nH]1)NC(=O)[C@H](C)NC(=O)[C@H](C)NC(=O)[C@H](CCCCN)NC(=O)[C@H](CCCCN)NC(=O)[C@H](Cc1ccccc1)NC(=O)[C@H](Cc1ccccc1)NC(=O)[C@H](CO)NC(=O)[C@H](C)NC(=O)[C@H](Cc1c[nH]c2ccccc12)NC(=O)[C@H](C)N)C(C)C)C(C)C)[C@@H](C)O)C(=O)O [AWASFFKKAAHVGKHVGKAALTHYL]

MIC [4]: 28.3 µM (≈ 57.4 µg/mL)
MIC [11]: 28.3 µM (≈ 57.4 µg/mL)
MIC [12]: 28.3 µM (≈ 57.4 µg/mL)
MIC [13]: ≥ 40 µM
MIC [14]: ≥ 40 µM
MIC [15]: ≥ 40 µM
MIC [16]: ≥ 56.6 µM
MIC [17]: 28.3 µM (≈ 57.4 µg/mL)
MIC [18]: 40 µM (≈ 81.1 µg/mL)
MIC [19]: 40 µM (≈ 81.1 µg/mL)
MIC [20]: ≥ 40 µM
SMILES: CC(C)C[C@H](NC(=O)[C@H](Cc1ccc(O)cc1)NC(=O)[C@H](Cc1cnc[nH]1)NC(=O)[C@@H](NC(=O)[C@H](CC(C)C)NC(=O)[C@H](C)NC(=O)[C@H](C)NC(=O)[C@H](CCCCN)NC(=O)CNC(=O)[C@@H](NC(=O)[C@H](Cc1cnc[nH]1)NC(=O)[C@H](CCCCN)NC(=O)CNC(=O)[C@@H](NC(=O)[C@H](Cc1cnc[nH]1)NC(=O)[C@H](C)NC(=O)[C@H](C)NC(=O)[C@H](CCCCN)NC(=O)[C@@H](N)CCCCN)C(C)C)C(C)C)[C@@H](C)O)C(N)=O [KKAAHVGKHVGKAALTHYL]

MIC [21]: 0.851 µM (≈ 1.56 µg/mL)
MIC [8]: 6.81 µM (≈ 12.5 µg/mL)
MIC [9]: 0.851 µM (≈ 1.56 µg/mL)
SMILES: CC[C@H](C)[C@H](N)C(=O)N[C@@H](CC(C)C)C(=O)N1CCC[C@H]1C(=O)N[C@@H](Cc1c[nH]c2ccccc12)C(=O)N[C@@H](CCCCN)C(=O)N[C@@H](Cc1c[nH]c2ccccc12)C(=O)N1CCC[C@H]1C(=O)N[C@@H](Cc1c[nH]c2ccccc12)C(=O)N[C@@H](CC(C)C)C(=O)N1CCC[C@H]1C(=O)N[C@@H](Cc1c[nH]c2ccccc12)C(=O)N[C@@H](CCCN=C(N)N)C(=O)N[C@@H](CCCN=C(N)N)C(N)=O [ILPWKWPWLPWRR]

MIC [17]: 7.5 µM (≈ 34.6 µg/mL)
MIC [22]: 30 µM (≈ 138 µg/mL)
SMILES: CC(C)[C@@H]1NC(=O)[C@@H]2CSSC[C@@H]3NC(=O)[C@H](CCCCN)NC(=O)CNC(=O)[C@H](CCC(=O)O)NC(=O)[C@H](CC(=O)O)NC(=O)[C@H]([C@@H](C)O)NC(=O)[C@@H]4CCCN4C(=O)[C@@H](NC(=O)CNC(=O)[C@H](Cc4ccc(O)cc4)NC(=O)[C@@H]4CCCN4C(=O)[C@H](CC(N)=O)NC(=O)[C@H](CCC(=O)O)NC(=O)[C@@H](N)Cc4ccc(O)cc4)CSSC[C@H](NC(=O)[C@H](Cc4ccc(O)cc4)NC(=O)CNC(=O)CNC(=O)[C@H](CCC(=O)O)NC(=O)[C@H](Cc4ccccc4)NC(=O)[C@H](CCC(=O)O)NC(=O)[C@H](CO)NC(=O)[C@H](CC(=O)O)NC(=O)[C@H](CC(N)=O)NC(=O)[C@H](CSSC[C@@H](C(=O)N[C@@H](Cc4ccc(O)cc4)C(=O)N[C@@H](CCCN=C(N)N)C(=O)N[C@H](C(=O)O)[C@@H](C)O)NC1=O)NC(=O)[C@H](CCCN=C(N)N)NC(=O)[C@H](CC(=O)O)NC(=O)[C@H](Cc1ccccc1)NC3=O)C(=O)NCC(=O)NCC(=O)N[C@@H](CO)C(=O)N[C@@H](Cc1ccc(O)cc1)C(=O)N[C@@H](CCCN=C(N)N)C(=O)N[C@@H](C)C(=O)N[C@@H]([C@@H](C)O)C(=O)N2 [YENPYGCPTDEGKCFDRCNDSEFEGGYCGGSYRATCVCYRT]

MIC [23]: 1.56 µM (≈ 3.61 µg/mL)
MIC [24]: 25 µM (≈ 57.9 µg/mL)
MIC [25]: 12.5 µM (≈ 29 µg/mL)
MIC [26]: 3.12 µM (≈ 7.24 µg/mL)
MIC [27]: 25 µM (≈ 57.9 µg/mL)
MIC [28]: 12.5 µM (≈ 29 µg/mL)
MIC [29]: 3.12 µM (≈ 7.24 µg/mL)
MIC [30]: ≥ 50 µM
MIC [31]: 6.25 µM (≈ 14.5 µg/mL)
MIC [32]: 1.56 µM (≈ 3.61 µg/mL)
SMILES: CC[C@H](C)[C@H](NC(=O)[C@H](CCCCN)NC(=O)[C@H](CCCCN)NC(=O)[C@H](Cc1ccccc1)NC(=O)[C@H](CC(C)C)NC(=O)[C@H](CCCCN)NC(=O)[C@H](Cc1c[nH]c2ccccc12)NC(=O)[C@@H](N)CCCCN)C(=O)N[C@@H](CC(C)C)C(=O)N[C@@H](CCCCN)C(=O)N[C@@H](Cc1ccccc1)C(=O)N[C@@H](CC(C)C)C(=O)N[C@@H](Cc1cnc[nH]1)C(=O)N[C@@H](CC(C)C)C(=O)N[C@@H](C)C(=O)N[C@@H](CCCCN)C(=O)N[C@@H](CCCCN)C(=O)N[C@@H](Cc1ccccc1)C(N)=O [KWKLFKKILKFLHLAKKF]
